Like-named read-outs stand apart in the source and are kept apart here.

In this experiment the test system is pathogens of rice blast. It is filed as cell-based. Particulars: 25° C., 7 days, elongation length of hyphae.

On to `COc1nc2nc3ccccc3n2c(F)c1C(F)(F)F` [Example 4, 4-fluoro-2-methoxy-3-(trifluoromethyl)benzo[4,5]imidazo[1,2-a]pyrimidine], for which the Control value is, setting by setting: (test solution 1000 ppm, 1,000 μl on oatmeal culture medium) 66; (test solution 2000 ppm, 1,000 μl on oatmeal culture medium) 96.

The values are drawn from patent US12428400B2 (priority 2020, dated 2025).
